What is called IC50 is the concentration at which inhibition is half-maximal. Read a low IC50 as higher potency.

From patent publication EP1137644B9, “BENZOFURAN DERIVATIVES, THEIR PREPARATION AND USE” (H. Lundbeck A/S, priority 1998, dated 2000) come the findings set out here.

Counter-ions that a name gives are not always drawn.

The first test deals with Human 5-HT1A Receptors. Nature of the test: Inhibition of 3H-5-CT binding to human 5-HT1A receptors. To be noted: at 100 nM; cloned human 5-HT1A receptors expressed in HeLa cells (HA7). As for the experimental part: The affinity of the compounds of the invention to 5-HT1A receptors was determined by measuring the inhibition of binding of a radioactive ligand at 5-HT1A receptors as described in the following test:
Inhibition of ^3H-5-CT Binding to Human 5-HT1A Receptors
By this method the inhibition by drugs of the binding of the 5-HT1A agonist ^3H-5-carboxamido tryptamine (^3H-5-CT) to cloned human 5-HT1A receptors stably expressed in transfected HeLa cells (HA7) (Fargin, A. et al, J. Biol. Chem., 1989, 264, 14848) is determined in vitro. The assay was performed as a modification of the method described by Harrington, M.A. et al, J. Pharmacol. Exp. Ther., 1994, 268, 1098. Human 5-HT1A receptors (40 µg of cell homogenate) were incubated for 15 minutes at 37 °C in 50 mM Tris buffer at pH 7.7 in the presence of ^3H-5-CT. Non-specific binding was determined by including 10 µM of metergoline. The reaction was terminated by rapid filtration through Unifilter GF/B filters on a Tomtec Cell Harvester. Filters were counted in a Packard Top Counter.
As to `C=CCN(CCCc1cccc(OC)c1)CCCC1(c2ccc(F)cc2)OCc2cc(C#N)ccc21` (stereo not shown) [Compound 4l, 1-(4-Fluorophenyl)-1-[3-[[3-(3-methoxyphenyl)propyl](prop-2-en-1-yl)amino]propyl]-1,3-dihydroisobenzofuran-5-carbonitrile], the “Inhibition of ^3H- 5-CT binding % inhibition at 100 nM” value amounted to 76% inh. at 100 nM.

Turning to `COc1ccccc1OCCCN(C)CCCC1(c2ccc(F)cc2)OCc2cc(C#N)ccc21` (stereo not shown) [Compound 4m, 1-(4-Fluorophenyl)-1-[3-[[3-(2-methoxyphenoxy)propyl]methylamino]propyl]-1,3-dihydroisobenzofuran-5-carbonitrile], the “Inhibition of ^3H- 5-CT binding % inhibition at 100 nM” value is 65% inh. at 100 nM.

For `C#CCN(CCCc1c[nH]c2ccccc12)CCCC1(c2ccc(F)cc2)OCc2cc(C#N)ccc21` (stereo not shown) [Compound 4u, 1-[3-[[3-(1H-Indol-3-yl)propyl](prop-2-yn-1-yl)amino]propyl]-1-(4-fluorophenyl)-1,3-dihydroisobenzofuran-5-carbonitrile], the “Inhibition of ^3H- 5-CT binding % inhibition at 100 nM” value was 58% inh. at 100 nM.

Staying with this test, now noted: cloned human 5-HT1A receptors expressed in HeLa cells (HA7), 15 minutes at 37 °C, pH 7.7.
Regarding `CN(CCCCc1cccc2c1OCCO2)CCCC1(c2ccc(F)cc2)OCc2cc(C#N)ccc21` (single isomer, unassigned; (+)) [Compound 1a, (+)-1-[3-[[4-(1,4-Benzodioxan-5-yl)butyl]methylamino]propyl]-1-(4-fluorophenyl)-1,3-dihydroisobenzofuran-5-carbonitrile], the IC50 turned out to be 39 nM.

The test system of another test is serotonin reuptake. Put plainly: Inhibition of 3H-5-HT uptake into rat brain synaptosomes. In kind it is biochemical. To be noted: ^3H-5-HT accumulation into whole rat brain synaptosomes. As for the experimental part:
Inhibition of ^3H-5-HT Uptake Into Rat Brain Synaptosomes
Using this method, the ability of drugs to inhibit the accumulation of ^3H-5-HT into whole rat brain synaptosomes is determined in vitro. The assay was performed as described by Hyttel, J., Psychopharmacology 1978, 60, 13.
As for `CN(CCCCc1cccc2c1OCCO2)CCCC1(c2ccc(F)cc2)OCc2cc(C#N)ccc21` (single isomer, unassigned; (+)) [Compound 1a, (+)-1-[3-[[4-(1,4-Benzodioxan-5-yl)butyl]methylamino]propyl]-1-(4-fluorophenyl)-1,3-dihydroisobenzofuran-5-carbonitrile], the IC50 came to 60 nM.

`CN(CCCc1cccc2c1OCCO2)CCCC1(c2ccc(F)cc2)OCc2cc(C#N)ccc21` (single isomer, unassigned; (+)) [Compound 1b, (+)-1-[3-[[3-(1,4-Benzodioxan-5-yl)propyl]methylamino]propyl]-1-(4-fluorophenyl)-1,3-dihydroisobenzofuran-5-carbonitrile oxalate]: the IC50 was 13 nM.

Regarding `CN(CCCC1(c2ccc(F)cc2)OCc2cc(C#N)ccc21)CCc1cccc2c1OCCO2` (stereo not shown) [Compound 1c, 1-[3-[[2-(1,4-Benzodioxan-5-yl)ethyl]methylamino]propyl]-1-(4-fluorophenyl)-1,3-dihydroisobenzofuran-5-carbonitrile oxalate], the IC50 is 85 nM.

The compound `COc1ccccc1N1CCN(CCCC2(c3ccc(F)cc3)OCc3cc(C#N)ccc32)CC1` (stereo not shown) [Compound 2a, 1-(4-Fluorophenyl)-1-[3-[4-(2-methoxyphenyl)piperazinyl]propyl]-1,3-dihydroisobenzofuran-5-carbonitrile] displayed an IC50 of 340 nM.

As to `N#Cc1ccc2c(c1)COC2(CCCN1CCC(c2c[nH]c3cc(Cl)ccc23)CC1)c1ccc(F)cc1` (stereo not shown) [Compound 2o, 1-[3-[4-(6-chloro-1H-Indol-3-yl)piperidinyl]propyl]-1-(4-fluorophenyl)-1,3-dihydroisobenzofuran-5-carbonitrile], the half-inhibitory concentration (IC50) was 31 nM.

Consider `CN(CCCC1(c2ccc(F)cc2)OCc2cc(C#N)ccc21)CCc1c[nH]c2c(F)cccc12` (stereo not shown) [Compound 12b, 1-[3-[[2-(7-Fluoro-1H-indol-3-yl)ethyl]methylamino]propyl]-1-(4-fluorophenyl)-1,3-dihydroisobenzofuran-5-carbonitrile], for which the IC50 was 10 nM.
